Data: ChEMBL document CHEMBL4145686, “Discovery of a Potent and Selective Steroidal Glucocorticoid Receptor Antagonist (ORIC-101)” (J Med Chem, 2018)

Experiments:
[1] = Volume of distribution at steady state in rat at 0.5 mg/kg, iv; type: ADME, organism-based; conditions: in vivo, read-out: Vdss
[2] = Half life in rat at 0.5 mg/kg, iv; type: ADME, organism-based; conditions: in vivo
[3] = Oral bioavailability in rat at 5 mg/kg; type: ADME, organism-based; conditions: in vivo
[4] = AUC in mini pig at 10 mg/kg, po; type: ADME, organism-based, Sus scrofa; conditions: in vivo
[5] = Unbound fraction in human plasma; type: ADME, cell-free
[6] = Unbound fraction in human plasma relative to mifepristone; type: ADME, cell-free
[7] = molecular target: T1, Cytochrome P450 2C8 (Homo sapiens, UniProt P10632); experiment: Inhibition of CYP2C8 (unknown origin) using […] as substrate; type: ADME
T1 sequence (P10632 whole entry): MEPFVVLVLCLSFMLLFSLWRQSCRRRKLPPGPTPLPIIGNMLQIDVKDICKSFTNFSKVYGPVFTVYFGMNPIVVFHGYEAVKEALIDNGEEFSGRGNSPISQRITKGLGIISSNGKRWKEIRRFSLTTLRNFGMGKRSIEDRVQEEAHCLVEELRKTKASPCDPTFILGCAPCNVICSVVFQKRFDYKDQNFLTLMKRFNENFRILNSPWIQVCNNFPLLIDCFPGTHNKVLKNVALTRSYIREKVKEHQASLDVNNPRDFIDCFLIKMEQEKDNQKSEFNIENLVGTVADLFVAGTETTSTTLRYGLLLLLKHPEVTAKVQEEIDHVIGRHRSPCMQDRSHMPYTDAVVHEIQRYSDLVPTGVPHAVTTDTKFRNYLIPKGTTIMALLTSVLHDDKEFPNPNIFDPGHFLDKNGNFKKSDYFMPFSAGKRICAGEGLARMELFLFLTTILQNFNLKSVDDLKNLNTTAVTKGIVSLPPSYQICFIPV

[8] = molecular target: T2, Progesterone receptor (Homo sapiens, UniProt P06401); experiment: Agonist activity at human PR expressed in CHO-K1 cells incubated for 20 hrs by luciferase reporter gene assay; type: cell-based; conditions: cho-k1, 20 h
T2 sequence (P06401 whole entry): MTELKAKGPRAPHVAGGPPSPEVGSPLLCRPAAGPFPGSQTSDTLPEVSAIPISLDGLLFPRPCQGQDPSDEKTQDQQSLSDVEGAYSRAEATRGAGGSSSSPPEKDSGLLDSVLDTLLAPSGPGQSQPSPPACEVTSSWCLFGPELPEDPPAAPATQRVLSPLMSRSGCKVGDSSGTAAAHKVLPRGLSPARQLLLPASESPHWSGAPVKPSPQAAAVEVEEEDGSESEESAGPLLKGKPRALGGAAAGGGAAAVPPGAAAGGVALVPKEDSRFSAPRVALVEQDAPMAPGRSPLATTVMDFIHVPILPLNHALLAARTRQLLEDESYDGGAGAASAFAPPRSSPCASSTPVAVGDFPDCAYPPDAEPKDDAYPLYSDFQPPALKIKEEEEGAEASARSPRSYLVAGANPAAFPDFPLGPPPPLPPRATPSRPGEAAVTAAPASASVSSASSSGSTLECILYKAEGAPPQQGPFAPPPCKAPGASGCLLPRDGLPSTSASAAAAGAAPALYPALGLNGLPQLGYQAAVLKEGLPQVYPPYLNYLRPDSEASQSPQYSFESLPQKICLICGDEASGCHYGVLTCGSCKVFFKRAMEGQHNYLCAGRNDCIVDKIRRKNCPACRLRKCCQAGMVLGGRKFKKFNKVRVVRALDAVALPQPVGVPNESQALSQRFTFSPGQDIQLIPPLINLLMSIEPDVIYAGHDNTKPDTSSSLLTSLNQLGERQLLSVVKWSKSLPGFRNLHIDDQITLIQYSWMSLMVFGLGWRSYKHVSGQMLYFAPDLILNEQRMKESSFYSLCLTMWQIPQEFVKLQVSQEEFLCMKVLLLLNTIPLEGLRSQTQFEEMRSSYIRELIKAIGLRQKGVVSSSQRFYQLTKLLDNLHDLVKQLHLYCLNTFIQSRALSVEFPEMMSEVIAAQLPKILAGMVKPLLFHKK

[9] = Antagonist activity at GR in monkey PBMC assessed as reduction in dexamethasone-induced FKBP5 gene expression incubated for 6 hrs by RT-qPCR method; type: cell-based; conditions: Macaca mulatta
[10] = molecular target: T3, Glucocorticoid receptor (Sus scrofa, UniProt Q9N1U3); experiment: Antagonist activity at GR in mini pig PBMC assessed as reduction in dexamethasone-induced FKBP5 gene expression incubated for 24 hrs by RT-qPCR method; type: cell-based
T3 sequence (Q9N1U3 whole entry): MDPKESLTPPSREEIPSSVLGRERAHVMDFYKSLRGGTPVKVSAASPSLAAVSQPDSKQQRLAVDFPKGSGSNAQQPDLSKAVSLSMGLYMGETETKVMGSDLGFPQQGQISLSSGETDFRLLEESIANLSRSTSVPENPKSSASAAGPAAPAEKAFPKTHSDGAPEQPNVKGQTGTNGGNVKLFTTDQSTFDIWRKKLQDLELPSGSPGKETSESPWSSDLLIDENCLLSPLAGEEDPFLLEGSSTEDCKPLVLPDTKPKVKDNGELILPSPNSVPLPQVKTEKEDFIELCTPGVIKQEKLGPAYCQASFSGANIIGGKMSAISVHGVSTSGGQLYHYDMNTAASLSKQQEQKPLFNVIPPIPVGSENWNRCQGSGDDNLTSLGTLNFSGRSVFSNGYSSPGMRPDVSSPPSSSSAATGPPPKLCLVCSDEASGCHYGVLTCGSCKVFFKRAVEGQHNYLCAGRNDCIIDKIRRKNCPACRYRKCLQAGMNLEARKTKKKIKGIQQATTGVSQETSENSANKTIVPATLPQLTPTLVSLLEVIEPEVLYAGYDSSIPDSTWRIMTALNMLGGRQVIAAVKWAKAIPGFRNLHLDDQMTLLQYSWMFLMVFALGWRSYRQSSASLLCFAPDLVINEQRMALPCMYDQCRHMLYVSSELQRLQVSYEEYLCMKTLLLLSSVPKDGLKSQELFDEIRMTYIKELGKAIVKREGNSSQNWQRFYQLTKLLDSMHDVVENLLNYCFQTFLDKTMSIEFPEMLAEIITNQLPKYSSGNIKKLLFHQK

CC(C)N(C)c1ccc([C@H]2C[C@@]3(C)[C@@H](CC[C@@]3(O)C#CC(C)(C)C)[C@@H]3CCC4=CC(=O)CC[C@@H]4[C@H]32)cc1
Vd [1]: 4.6 L/kg
half-life [2]: 264 min
bioavailability [3]: 24%
AUC [4]: 1720 ng·h/mL
fraction unbound [5]: 0.14
Ratio [6]: 10
IC50 [7]: > 10 µM
Activity [8]: Not Active
IC50 [9]: 11.1 nM
IC50 [10]: 39.3 nM
